Laboratory results taken from patent publication US11673897B2, “Compounds for the treatment of kinase-dependent disorders” (Exelixis, Inc., priority 2018, dated 2023).

Tests used:
Type in all cases: cell-based
[1] = target: AXL (Homo sapiens (Human), UniProt P30530); assay: AXL autophosphorylation ELISA in A-172 cells; settings: cellular, Gas6-stimulated, phospho-AXL ELISA
Method: A-172 glioblastoma cells (ATCC #CRL-1620) were seeded at 2.5×10^5 cells/well onto 24-well plates (Greiner #662165), in […] (Thermo Fisher #11995-040) containing 10% FBS (Thermo Fisher #26140-079), […] (Thermo Fisher #11140-050), […] (Thermo Fisher #35050-061), and 1% Penicillin Streptomycin (Thermo Fisher #15140-122). A-172 cells were incubated at 37° C., […] for 24 hand then starved for 24 h in serum-free medium. Test compounds were serially diluted to produce an 8-point dose curve in fresh serum-free medium to a final concentration of 0.3% DMSO (vehicle) and added to the cells and incubated for 1 h. Cells were then stimulated with 1 μg/mL recombinant human Gas6 (R&D Systems #885-GSB-500) for 15 min, washed with cold PBS, and immediately lysed with 150 μL of cold 1× lysis buffer [20 mM Tris, 137 mM sodium chloride, 2 mM EDTA, 10% glycerol, 1% NP-40 alternative, 1 mM activated sodium orthovanadate, 1 mM PefaBloc SC (Sigma-Aldrich #11429868001), protease/phosphatase inhibitor tablet (Thermo Fisher #A32959)]. Lysates were collected and 100 μL/well added into the human phospho-AXL DuoSet IC ELISA (R&D Systems #DYC2228-2). Assay was performed according to manufacturer's instructions and sample phospho-AXL concentrations were extrapolated using human phospho-AXL control (R&D Systems #841645) as a standard. Positive control wells (100% activity) contained Gas6-stimulated, DMSO-treated cell lysates. Negative control wells (0% activity) contained Gas6-stimulated, reference inhibitor-treated cell lysates. IC50 values were calculated by nonlinear regression analysis using a 4-parameter logistic curve fit in ActivityBase XE (IDBS).

[2] = target: Met (Homo sapiens (Human), UniProt P08581); assay: Met autophosphorylation ELISA in PC-3 cells; settings: cellular, HGF-stimulated, phospho-Met ELISA, read-out: c-Met IC50
Method: PC-3 prostate cancer cells (ATCC #CRL-1435) were seeded at 4×10^4 cells/well onto 24-well plates (Greiner #662165), in DMEM (Thermo Fisher #11995-040) containing 10% FBS (Thermo Fisher #26140-079), 1% MEM NEAA (Thermo Fisher #11140-050), 1% GlutaMax (Thermo Fisher #35050-061), and 1% Penicillin Streptomycin (Thermo Fisher #15140-122). PC-3 cells were incubated at 37° C., 5% CO2 for 24 h and then starved for 3 h in serum-free medium. Test compounds were serially diluted to produce an 8-point dose curve in fresh serum-free medium to a final concentration of 0.3% DMSO (vehicle) and added to the cells and incubated for 1 h. Cells were then stimulated with 100 ng/mL recombinant human HGF (R&D Systems #294-HG-250) for 10 min, washed with cold PBS, and immediately lysed with 130 μL of cold 1× lysis buffer [20 mM Tris, 137 mM sodium chloride, 2 mM EDTA, 10% glycerol, 1% NP-40 alternative, 1 mM activated sodium orthovanadate, 1 mM PefaBloc SC (Sigma-Aldrich #11429868001), and protease/phosphatase inhibitor tablet (Thermo Fisher #A32959)]. Lysates were clarified by centrifugation and 100 μL/well added into the PathScan phospho-Met (panTyr) Sandwich ELISA (Cell Signaling Technology #7333). Assay was performed according to manufacturer's instructions. Positive control wells (100% activity) contained HGF-stimulated, DMSO-treated cell lysates. Negative control wells (0% activity) contained HGF-stimulated, reference inhibitor-treated cell lysates. IC50 values were calculated by nonlinear regression analysis using a 4-parameter logistic curve fit in ActivityBase XE (IDBS).

[3] = target: KDR (Homo sapiens (Human), UniProt P35968); assay: KDR autophosphorylation ELISA in HUVEC cells; settings: cellular, VEGF165-stimulated, phospho-KDR ELISA
Method: Human umbilical vein endothelial cells or HUVEC (Lonza #C2519A) were seeded at 2×10^4 cells/well onto 96-well plates (Corning #3904), in EGM-2 growth medium (Lonza #CC-3162) containing 1% Penicillin Streptomycin (Thermo Fisher #15140-122). HUVEC cells were incubated at 37° C., 5% CO2 for 24 h and then starved for 24 h in serum-free EBM-2 basal medium (Lonza #CC-3156) containing 1% Penicillin Streptomycin. Test compounds were serially diluted to produce an 8-point dose curve in fresh serum-free medium to a final concentration of 0.3% DMSO (vehicle) and added to the cells and incubated for 1 h. Cells were then stimulated with 100 ng/mL recombinant human VEGF165 (R&D Systems #293-VE-500) for 5 min, washed with cold PBS, and immediately lysed with 130 μL of cold 1× lysis buffer [20 mM Tris, 137 mM sodium chloride, 2 mM EDTA, 10% glycerol, 1% NP-40 alternative, 1 mM activated sodium orthovanadate, 1 mM PefaBloc SC (Sigma-Aldrich #11429868001), protease/phosphatase inhibitor tablet (Thermo Fisher #A32959)]. Lysates were collected and 100 μL/well added into the human phospho-KDR DuoSet IC ELISA (R&D Systems #DYC1766-2). Assay was performed according to manufacturer's instructions and sample phospho-KDR concentrations were extrapolated using human phospho-KDR control (R&D Systems #841421) as a standard. Positive control wells (100% activity) contained VEGF165-stimulated, DMSO-treated cell lysates. Negative control wells (0% activity) contained non-stimulated cell lysates. IC50 values were calculated by nonlinear regression analysis using a 4-parameter logistic curve fit in ActivityBase XE (IDBS).

Chain of KDR (P35968 20-1356): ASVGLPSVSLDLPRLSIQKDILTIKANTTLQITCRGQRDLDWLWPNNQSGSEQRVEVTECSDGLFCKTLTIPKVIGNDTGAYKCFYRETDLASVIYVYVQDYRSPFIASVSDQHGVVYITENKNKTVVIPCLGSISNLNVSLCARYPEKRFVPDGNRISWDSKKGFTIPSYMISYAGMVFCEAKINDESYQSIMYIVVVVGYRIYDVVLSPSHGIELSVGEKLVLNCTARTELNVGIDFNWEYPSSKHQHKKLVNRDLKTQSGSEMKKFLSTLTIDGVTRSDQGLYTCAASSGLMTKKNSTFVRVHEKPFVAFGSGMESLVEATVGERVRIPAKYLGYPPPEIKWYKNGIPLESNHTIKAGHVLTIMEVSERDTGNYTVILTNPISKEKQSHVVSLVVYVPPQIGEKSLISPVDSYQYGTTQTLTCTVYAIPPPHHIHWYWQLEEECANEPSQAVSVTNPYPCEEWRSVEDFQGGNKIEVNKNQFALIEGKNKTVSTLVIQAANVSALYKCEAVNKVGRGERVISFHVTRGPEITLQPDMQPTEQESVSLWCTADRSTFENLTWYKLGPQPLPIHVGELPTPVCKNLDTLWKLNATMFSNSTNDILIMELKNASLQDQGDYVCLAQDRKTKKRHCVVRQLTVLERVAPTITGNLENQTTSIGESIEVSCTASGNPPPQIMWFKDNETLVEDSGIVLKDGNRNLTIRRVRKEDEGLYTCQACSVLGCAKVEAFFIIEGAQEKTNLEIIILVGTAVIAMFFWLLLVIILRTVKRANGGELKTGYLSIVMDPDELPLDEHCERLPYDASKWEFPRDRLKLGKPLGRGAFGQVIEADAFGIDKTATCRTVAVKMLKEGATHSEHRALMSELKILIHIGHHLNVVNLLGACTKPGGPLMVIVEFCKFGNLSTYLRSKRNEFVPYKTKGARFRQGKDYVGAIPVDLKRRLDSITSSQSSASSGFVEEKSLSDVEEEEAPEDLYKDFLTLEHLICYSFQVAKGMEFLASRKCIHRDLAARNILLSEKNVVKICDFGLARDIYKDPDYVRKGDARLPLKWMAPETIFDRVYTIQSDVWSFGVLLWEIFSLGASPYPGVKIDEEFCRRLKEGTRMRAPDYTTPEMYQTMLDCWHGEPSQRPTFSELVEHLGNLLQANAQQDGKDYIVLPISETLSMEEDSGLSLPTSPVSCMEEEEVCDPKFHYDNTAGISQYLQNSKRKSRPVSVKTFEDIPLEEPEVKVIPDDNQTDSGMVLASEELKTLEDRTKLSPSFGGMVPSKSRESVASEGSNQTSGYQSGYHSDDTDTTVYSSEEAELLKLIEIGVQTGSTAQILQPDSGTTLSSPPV
Chain of Met (P08581 25-1390): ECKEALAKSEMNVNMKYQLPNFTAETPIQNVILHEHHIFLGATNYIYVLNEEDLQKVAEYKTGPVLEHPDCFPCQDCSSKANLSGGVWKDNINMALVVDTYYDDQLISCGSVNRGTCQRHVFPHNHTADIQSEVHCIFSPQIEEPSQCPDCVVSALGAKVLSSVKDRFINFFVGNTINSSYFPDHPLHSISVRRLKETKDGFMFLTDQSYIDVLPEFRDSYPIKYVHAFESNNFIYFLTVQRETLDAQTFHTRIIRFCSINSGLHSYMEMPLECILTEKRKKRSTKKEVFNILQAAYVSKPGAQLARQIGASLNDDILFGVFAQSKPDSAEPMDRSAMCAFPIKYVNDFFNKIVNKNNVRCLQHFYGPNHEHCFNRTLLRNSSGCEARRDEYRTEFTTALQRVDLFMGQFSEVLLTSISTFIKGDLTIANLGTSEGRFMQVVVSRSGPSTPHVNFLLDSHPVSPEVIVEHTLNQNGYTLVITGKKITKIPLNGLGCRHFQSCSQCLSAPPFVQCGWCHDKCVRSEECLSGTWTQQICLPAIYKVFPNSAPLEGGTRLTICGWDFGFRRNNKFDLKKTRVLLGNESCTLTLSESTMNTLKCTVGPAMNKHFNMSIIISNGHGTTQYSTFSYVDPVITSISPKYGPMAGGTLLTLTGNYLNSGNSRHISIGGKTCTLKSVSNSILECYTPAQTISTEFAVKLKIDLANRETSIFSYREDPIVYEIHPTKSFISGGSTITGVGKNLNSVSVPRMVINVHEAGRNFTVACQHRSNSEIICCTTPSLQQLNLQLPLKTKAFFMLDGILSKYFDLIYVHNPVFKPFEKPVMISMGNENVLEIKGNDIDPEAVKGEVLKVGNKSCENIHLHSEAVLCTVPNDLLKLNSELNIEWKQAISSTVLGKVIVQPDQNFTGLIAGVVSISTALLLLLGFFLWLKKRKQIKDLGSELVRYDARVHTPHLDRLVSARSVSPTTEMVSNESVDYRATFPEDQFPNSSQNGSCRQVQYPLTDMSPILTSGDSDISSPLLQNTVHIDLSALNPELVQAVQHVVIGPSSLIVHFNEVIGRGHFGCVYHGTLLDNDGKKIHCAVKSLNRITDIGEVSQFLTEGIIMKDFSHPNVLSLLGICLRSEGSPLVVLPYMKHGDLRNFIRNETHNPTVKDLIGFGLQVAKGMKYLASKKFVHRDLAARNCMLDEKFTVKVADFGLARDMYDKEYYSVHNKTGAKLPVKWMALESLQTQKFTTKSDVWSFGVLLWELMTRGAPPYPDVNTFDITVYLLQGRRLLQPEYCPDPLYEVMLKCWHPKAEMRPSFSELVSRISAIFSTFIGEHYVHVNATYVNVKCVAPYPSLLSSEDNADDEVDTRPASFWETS
Chain of AXL (P30530 26-894): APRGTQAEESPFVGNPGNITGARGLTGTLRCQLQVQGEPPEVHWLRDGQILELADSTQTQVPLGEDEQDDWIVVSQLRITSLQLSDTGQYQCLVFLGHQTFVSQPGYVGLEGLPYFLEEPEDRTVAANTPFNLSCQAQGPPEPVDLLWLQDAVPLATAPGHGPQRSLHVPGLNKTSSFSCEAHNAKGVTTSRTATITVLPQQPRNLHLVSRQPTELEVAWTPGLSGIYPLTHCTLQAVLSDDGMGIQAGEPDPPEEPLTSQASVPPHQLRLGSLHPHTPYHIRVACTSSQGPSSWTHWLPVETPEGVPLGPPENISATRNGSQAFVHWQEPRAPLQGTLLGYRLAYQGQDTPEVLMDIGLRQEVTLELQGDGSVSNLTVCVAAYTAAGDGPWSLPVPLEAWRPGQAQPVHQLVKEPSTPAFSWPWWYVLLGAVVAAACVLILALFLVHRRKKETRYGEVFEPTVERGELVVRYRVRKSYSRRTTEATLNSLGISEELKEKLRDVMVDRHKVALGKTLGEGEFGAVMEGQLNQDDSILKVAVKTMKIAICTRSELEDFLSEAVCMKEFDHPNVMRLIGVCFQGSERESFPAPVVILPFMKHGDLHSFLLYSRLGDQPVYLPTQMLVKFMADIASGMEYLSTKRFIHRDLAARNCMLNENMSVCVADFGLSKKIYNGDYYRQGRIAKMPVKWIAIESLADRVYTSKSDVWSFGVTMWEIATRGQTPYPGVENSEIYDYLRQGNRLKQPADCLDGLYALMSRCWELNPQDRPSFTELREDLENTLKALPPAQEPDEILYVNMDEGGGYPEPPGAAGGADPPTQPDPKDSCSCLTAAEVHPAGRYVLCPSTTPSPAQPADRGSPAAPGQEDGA

Row | SMILES | IC50 [1] [nM] | IC50 [2] [nM] | IC50 [3] [nM]
1 | COc1cc2nccc(Oc3ncc(NC(=O)C4(C(=O)Nc5ccc(F)cc5)CC4)cc3F)c2cc1C(=O)O [Compound 15, 4-[3-Fluoro-5-[[1-[(4-fluorophenyl)carbamoyl]cyclopropanecarbonyl]amino]pyridin-2-yl]oxy-7-methoxyquinoline-6-carboxylic acid] | > 300 | > 300 | > 300
2 | COCc1noc(-c2cc3c(Oc4ncc(NC(=O)C5(C(=O)Nc6ccc(F)cc6)CC5)cc4F)ccnc3cc2OC)n1 [Compound 25, 1-N′-[5-Fluoro-6-[7-methoxy-6-[3-(methoxymethyl)-1,2,4-oxadiazol-5-yl]quinolin-4-yl]oxypyridin-3-yl]-1-N-(4-fluorophenyl)cyclopropane-1,1-dicarboxamide] | > 300 | > 300 | > 300
3 | COCCc1noc(-c2cc3c(Oc4ncc(NC(=O)C5(C(=O)Nc6ccc(F)cc6)CC5)cc4F)ccnc3cc2OC)n1 [Compound 26, 1-N′-[5-Fluoro-6-[7-methoxy-6-[3-(2-methoxyethyl)-1,2,4-oxadiazol-5-yl]quinolin-4-yl]oxypyridin-3-yl]-1-N-(4-fluorophenyl)cyclopropane-1,1-dicarboxamide] | > 300 | > 300 | > 300
4 | CCc1noc(-c2cc3c(Oc4ncc(NC(=O)C5(C(=O)Nc6ccc(F)cc6)CC5)cc4F)ccnc3cc2OC)n1 [Compound 27, 1-N′-[6-[6-(3-Ethyl-1,2,4-oxadiazol-5-yl)-7-methoxyquinolin-4-yl]oxy-5-fluoropyridin-3-yl]-1-N-(4-fluorophenyl)cyclopropane-1,1-dicarboxamide] | > 300 | > 300 | > 300
5 | CNC(=O)c1cc2c(Oc3ncc(NC(=O)C4(C(=O)Nc5ccc(F)cc5)CC4)cc3F)ccnc2cc1OCCO [Compound 44, 1-N′-[5-Fluoro-6-[7-(2-hydroxyethoxy)-6-(methylcarbamoyl)-quinolin-4-yl]oxypyridin-3-yl]-1-N-(4-fluorophenyl)cyclopropane-1,1-dicarboxamide] | 10 to 100 | 10 to 100 | > 300
6 | COc1cc2nccc(Oc3cc(C)c(NC(=O)C4(C(=O)Nc5ccc(F)cc5)CC4)cn3)c2nc1OC [Compound 83, 1-N′-[6-[(6,7-Dimethoxy-1,5-naphthyridin-4-yl)oxy]-4-methylpyridin-3-yl]-1-N-(4-fluorophenyl)cyclopropane-1,1-dicarboxamide] | > 300 | > 300 | > 300
7 | COc1cc2nccc(Oc3ncc(NC(=O)C4(C(=O)Nc5ccc(F)cc5)CC4)cc3C#N)c2nc1OC [Compound 84, 1-N′-[5-Cyano-6-[(6,7-dimethoxy-1,5-naphthyridin-4-yl)oxy]pyridin-3-yl]-1-N-(4-fluorophenyl)cyclopropane-1,1-dicarboxamide] | > 300 | > 300 | > 300
8 | COc1cc2nccc(Oc3ncc(NC(=O)C4(C(=O)Nc5ccc(F)cc5)CC4)cc3C)c2nc1OC [Compound 85, 1-N′-[6-[(6,7-Dimethoxy-1,5-naphthyridin-4-yl)oxy]-5-methylpyridin-3-yl]-1-N-(4-fluorophenyl)cyclopropane-1,1-dicarboxamide] | > 300 | > 300 | > 300
9 | COc1cc(Oc2ccnc3cc(OC)c(OC)nc23)ncc1NC(=O)C1(C(=O)Nc2ccc(F)cc2)CC1 [Compound 88, 1-N′-[6-[(6,7-Dimethoxy-1,5-naphthyridin-4-yl)oxy]-4-methoxypyridin-3-yl]-1-N-(4-fluorophenyl)cyclopropane-1,1-dicarboxamide] | 100 to 300 | > 300 | > 300
10 | COc1cc2nccc(Oc3ncc(NC(=O)C4(C(=O)Nc5ccc(F)cc5)CC4)cc3C(F)(F)F)c2nc1OC [Compound 89, 1-N′-[6-[(6,7-Dimethoxy-1,5-naphthyridin-4-yl)oxy]-5-(trifluoromethyl)pyridin-3-yl]-1-N-(4-fluorophenyl)cyclopropane-1,1-dicarboxamide] | > 300 | > 300 | > 300
11 | COc1cc2nccc(Oc3nc(C)c(NC(=O)C4(C(=O)Nc5ccc(F)cc5)CC4)cc3Br)c2nc1OC [Compound 90, 1-N′-[5-Bromo-6-[(6,7-dimethoxy-1,5-naphthyridin-4-yl)oxy]-2-methylpyridin-3-yl]-1-N-(4-fluorophenyl)cyclopropane-1,1-dicarboxamide] | > 300 | > 300 | > 300
12 | COc1cc2nccc(Oc3ccc(NC(=O)C4(C(=O)Nc5ccc(F)cc5)CC4)c(C(N)=O)n3)c2nc1OC [Compound 91, 1-N′-[2-Carbamoyl-6-[(6,7-dimethoxy-1,5-naphthyridin-4-yl)oxy]pyridin-3-yl]-1-N-(4-fluorophenyl)cyclopropane-1,1-dicarboxamide] | > 300 | > 300 | > 300
13 | COc1cc2nccc(Oc3ncc(NC(=O)C4(C(=O)Nc5ccc(F)cc5)CC4)cc3OC)c2nc1OC [Compound 92, 1-N′-[6-[(6,7-Dimethoxy-1,5-naphthyridin-4-yl)oxy]-5-methoxypyridin-3-yl]-1-N-(4-fluorophenyl)cyclopropane-1,1-dicarboxamide] | > 300 | > 300 | > 300
14 | O=C(Nc1ccc(F)cc1)C1(C(=O)Nc2ccc(Oc3ccnc4cc5c(nc34)OCCO5)nc2)CC1 [Compound 103, 1-N′-[6-(2,3-Dihydro-[1,4]dioxino[2,3-b][1,5]naphthyridin-6-yloxy)pyridin-3-yl]-1-N-(4-fluorophenyl)cyclopropane-1,1-dicarboxamide] | > 300 | > 300 | > 300
15 | O=C(Nc1ccc(F)cc1)C1(C(=O)Nc2cnc(Oc3ccnc4cc5c(nc34)OCCO5)c(Cl)c2)CC1 [Compound 104, 1-N′-[5-Chloro-6-(2,3-dihydro-[1,4]dioxino[2,3-b][1,5]naphthyridin-6-yloxy)pyridin-3-yl]-1-N-(4-fluorophenyl)cyclopropane-1,1-dicarboxamide] | > 300 | > 300 | > 300
16 | O=C(Nc1ccc(F)cc1)C1(C(=O)Nc2cnc(Oc3ccnc4cc5c(nc34)OCCO5)c(F)c2)CC1 [Compound 105, 1-N′-[6-(2,3-Dihydro-[1,4]dioxino[2,3-b][1,5]naphthyridin-6-yloxy)-5-fluoropyridin-3-yl]-1-N-(4-fluorophenyl)cyclopropane-1,1-dicarboxamide] | > 300 | > 300 | > 300
